# Experimental data published in ChEMBL document CHEMBL5665443, “Enzyme Inhibitor Single Concentration assay results for EUbOPEN Chemogenomics Library” (2024).
# “And” between values parts separate entries of the source, which are not always exact repeats. Identical values can stand only once.
# What was measured:
# Conditions in all cases: Compound Concentration 10.0 uM, Hit No
# [1] = molecular target: Methyl-CpG-binding domain protein 4 (Homo sapiens) (UniProt O95243);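 note: MBD4 activity read as fluorescence at 594 nm from cleavage and release of a quenched duplex DNA oligonucleotide, with APE1 coupled to incise the strand and raise turnover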
# Description: Inhibition of MBD4 by quantifying inhibition of MBD4-mediated cleavage and dissociation of quenched duplex DNA oligonucleotides, measured as fluorescence at 594 nm. To generate a functional strand incision and increase turn-over this assay is coupled to APE1.
# [2] = molecular target: DNA-3-methyladenine glycosylase (Homo sapiens) (UniProt P29372);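 note: enzyme assay where MPG cuts a quenched duplex DNA oligonucleotide probe, paired with APE1 for strand incision and turnover, read as fluorescence at 594 nm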
# Description: Inhibition of MPG by quantifying inhibition of MPG-mediated cleavage and dissociation of quenched duplex DNA oligonucleotides, measured as fluorescence at 594 nm. To generate a functional strand incision and increase turn-over this assay is coupled to APE1.
# [3] = molecular target: Endonuclease 8-like 1 (Homo sapiens) (UniProt Q96FI4);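 note: fluorescence at 594 nm from quenched duplex DNA oligonucleotides released by NEIL1 cleavage and strand separation, reported as reduction of this enzyme activity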
# Description: Inhibition of NEIL1 by quantifying inhibition of NEIL1-mediated cleavage and dissociation of quenched duplex DNA oligonucleotides, measured as fluorescence at 594 nm.
# [4] = molecular target: T1, Endonuclease 8-like 2 (Homo sapiens) (UniProt Q969S2);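 note: fluorescence at 594 nm reports NEIL2 cutting and release of a quenched double-stranded DNA oligo substrate, reduced signal read as inhibition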
# T1 sequence (whole entry): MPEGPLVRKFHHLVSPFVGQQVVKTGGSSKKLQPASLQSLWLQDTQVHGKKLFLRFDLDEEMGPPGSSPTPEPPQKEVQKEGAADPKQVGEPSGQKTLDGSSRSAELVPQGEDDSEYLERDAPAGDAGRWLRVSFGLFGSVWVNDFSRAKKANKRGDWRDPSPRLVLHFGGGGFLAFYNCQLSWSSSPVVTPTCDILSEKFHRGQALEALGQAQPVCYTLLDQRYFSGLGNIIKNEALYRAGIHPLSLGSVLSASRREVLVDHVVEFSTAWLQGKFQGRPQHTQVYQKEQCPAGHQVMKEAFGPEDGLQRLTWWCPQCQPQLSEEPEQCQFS
# Description: Inhibition of NEIL2 by quantifying inhibition of NEIL2-mediated cleavage and dissociation of quenched duplex DNA oligonucleotides, measured as fluorescence at 594 nm.
# [5] = molecular target: T2, Endonuclease III-like protein 1 (Homo sapiens) (UniProt P78549);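 note: enzyme assay tracking NTHL1 cutting and release of a quenched double-stranded DNA oligo substrate, read as fluorescence at 594 nm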
# T2 sequence (whole entry): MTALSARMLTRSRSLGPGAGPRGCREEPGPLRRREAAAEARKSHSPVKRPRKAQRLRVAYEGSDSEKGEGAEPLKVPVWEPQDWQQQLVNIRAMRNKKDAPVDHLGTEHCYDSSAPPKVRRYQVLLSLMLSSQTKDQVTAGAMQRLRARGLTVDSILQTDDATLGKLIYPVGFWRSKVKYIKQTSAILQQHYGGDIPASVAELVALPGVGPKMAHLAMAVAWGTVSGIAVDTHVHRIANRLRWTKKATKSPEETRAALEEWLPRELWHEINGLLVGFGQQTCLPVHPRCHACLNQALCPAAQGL
# Description: Inhibition of NTHL1 by quantifying inhibition of NTHL1-mediated cleavage and dissociation of quenched duplex DNA oligonucleotides, measured as fluorescence at 594 nm.
# [6] = molecular target: N-glycosylase/DNA lyase (Homo sapiens) (UniProt O15527);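 note: OGG1 cleavage of a quenched duplex DNA oligonucleotide, coupled to APE1 for strand incision, read as fluorescence at 594 nm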
# Description: Inhibition of OGG1 by quantifying inhibition of OGG1-mediated cleavage and dissociation of quenched duplex DNA oligonucleotides, measured as fluorescence at 594 nm. To generate a functional strand incision and increase turn-over this assay is coupled to APE1.
# [7] = molecular target: T3, Single-strand selective monofunctional uracil DNA glycosylase (Homo sapiens) (UniProt Q53HV7);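 note: enzymatic SMUG1 assay coupled with APE1, reading fluorescence at 594 nm released when a quenched double-stranded DNA oligonucleotide substrate is cleaved and separated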
# T3 sequence (whole entry): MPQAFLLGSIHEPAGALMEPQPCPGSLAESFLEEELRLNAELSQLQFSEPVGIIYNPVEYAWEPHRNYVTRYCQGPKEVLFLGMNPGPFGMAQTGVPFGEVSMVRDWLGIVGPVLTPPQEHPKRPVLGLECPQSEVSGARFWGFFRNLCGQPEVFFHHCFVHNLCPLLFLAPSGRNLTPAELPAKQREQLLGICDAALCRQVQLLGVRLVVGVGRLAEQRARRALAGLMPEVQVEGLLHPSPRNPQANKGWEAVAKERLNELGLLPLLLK
# Description: Inhibition of SMUG1 by quantifying inhibition of SMUG1-mediated cleavage and dissociation of quenched duplex DNA oligonucleotides, measured as fluorescence at 594 nm. To generate a functional strand incision and increase turn-over this assay is coupled to APE1.
# [8] = molecular target: G/T mismatch-specific thymine DNA glycosylase (Homo sapiens) (UniProt Q13569);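 note: human TDG cleavage of quenched duplex DNA oligonucleotides coupled to APE1, strand release read as fluorescence at 594 nm, inhibition of TDG activity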
# Description: Inhibition of TDG by quantifying inhibition of TDG-mediated cleavage and dissociation of quenched duplex DNA oligonucleotides, measured as fluorescence at 594 nm. To generate a functional strand incision and increase turn-over this assay is coupled to APE1.
# [9] = molecular target: Uracil-DNA glycosylase (Homo sapiens) (UniProt P13051);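 note: UNG excision on a quenched double-stranded DNA oligo probe, with APE1 added for strand incision and turnover, read as fluorescence at 594 nm as strands separate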
# Description: Inhibition of UNG by quantifying inhibition of UNG-mediated cleavage and dissociation of quenched duplex DNA oligonucleotides, measured as fluorescence at 594 nm. To generate a functional strand incision and increase turn-over this assay is coupled to APE1.
# [10] = molecular target: T4, Adenine DNA glycosylase (Homo sapiens) (UniProt Q9UIF7);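 note: human MUTYH activity read as 594 nm fluorescence from cleavage and release of a quenched DNA duplex, coupled with APE1 for strand incision, lower signal meaning inhibition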
# T4 sequence (whole entry): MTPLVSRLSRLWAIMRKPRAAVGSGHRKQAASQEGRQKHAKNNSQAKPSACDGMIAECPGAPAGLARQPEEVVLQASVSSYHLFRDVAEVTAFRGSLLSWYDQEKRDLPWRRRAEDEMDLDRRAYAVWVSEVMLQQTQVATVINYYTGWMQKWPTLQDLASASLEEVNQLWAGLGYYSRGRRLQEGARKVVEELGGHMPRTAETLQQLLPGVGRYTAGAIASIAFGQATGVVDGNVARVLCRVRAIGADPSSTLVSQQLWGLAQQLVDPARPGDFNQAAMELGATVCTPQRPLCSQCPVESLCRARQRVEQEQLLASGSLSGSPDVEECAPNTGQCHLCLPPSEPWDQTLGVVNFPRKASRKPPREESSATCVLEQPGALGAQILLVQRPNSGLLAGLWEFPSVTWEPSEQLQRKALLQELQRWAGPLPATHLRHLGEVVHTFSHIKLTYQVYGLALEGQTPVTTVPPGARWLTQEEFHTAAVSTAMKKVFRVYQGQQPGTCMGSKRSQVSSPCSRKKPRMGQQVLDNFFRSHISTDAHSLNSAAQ
# Description: Inhibition of MUTYH by quantifying inhibition of MUTYH-mediated cleavage and dissociation of quenched duplex DNA oligonucleotides, measured as fluorescence at 594 nm. To generate a functional strand incision and increase turn-over this assay is coupled to APE1.
# Sequence of Uracil-DNA glycosylase (Homo sapiens) (P13051 whole entry): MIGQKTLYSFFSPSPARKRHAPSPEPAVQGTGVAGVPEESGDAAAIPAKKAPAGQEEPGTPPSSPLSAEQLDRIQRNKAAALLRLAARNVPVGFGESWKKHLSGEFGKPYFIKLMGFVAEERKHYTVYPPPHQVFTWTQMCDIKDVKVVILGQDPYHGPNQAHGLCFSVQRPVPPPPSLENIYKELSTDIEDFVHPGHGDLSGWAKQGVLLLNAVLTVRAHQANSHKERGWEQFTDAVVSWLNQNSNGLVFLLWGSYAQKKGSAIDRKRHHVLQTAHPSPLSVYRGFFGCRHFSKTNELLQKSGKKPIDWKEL
# Sequence of G/T mismatch-specific thymine DNA glycosylase (Homo sapiens) (Q13569 whole entry): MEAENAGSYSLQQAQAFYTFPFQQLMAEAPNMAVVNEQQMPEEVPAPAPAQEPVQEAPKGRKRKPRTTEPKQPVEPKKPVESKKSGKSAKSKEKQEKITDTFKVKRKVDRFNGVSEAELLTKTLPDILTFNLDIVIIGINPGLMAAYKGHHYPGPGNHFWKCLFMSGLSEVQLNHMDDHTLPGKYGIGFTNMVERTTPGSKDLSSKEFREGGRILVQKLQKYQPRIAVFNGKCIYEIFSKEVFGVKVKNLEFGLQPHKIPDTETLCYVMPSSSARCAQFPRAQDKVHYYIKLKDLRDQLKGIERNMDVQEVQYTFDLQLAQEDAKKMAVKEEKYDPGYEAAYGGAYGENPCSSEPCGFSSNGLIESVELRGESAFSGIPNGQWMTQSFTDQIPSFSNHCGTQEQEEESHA
# Sequence of DNA-3-methyladenine glycosylase (Homo sapiens) (P29372 whole entry): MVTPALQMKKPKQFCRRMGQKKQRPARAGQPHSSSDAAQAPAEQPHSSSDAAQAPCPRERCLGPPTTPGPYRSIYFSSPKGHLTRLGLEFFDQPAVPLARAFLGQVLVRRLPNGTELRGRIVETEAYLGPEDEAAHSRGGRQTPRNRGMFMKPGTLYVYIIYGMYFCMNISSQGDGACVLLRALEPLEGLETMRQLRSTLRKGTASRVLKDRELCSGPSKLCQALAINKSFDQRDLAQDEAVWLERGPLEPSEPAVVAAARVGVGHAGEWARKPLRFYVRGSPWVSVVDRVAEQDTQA
# Sequence of Methyl-CpG-binding domain protein 4 (Homo sapiens) (O95243 whole entry, the tested form may be a part): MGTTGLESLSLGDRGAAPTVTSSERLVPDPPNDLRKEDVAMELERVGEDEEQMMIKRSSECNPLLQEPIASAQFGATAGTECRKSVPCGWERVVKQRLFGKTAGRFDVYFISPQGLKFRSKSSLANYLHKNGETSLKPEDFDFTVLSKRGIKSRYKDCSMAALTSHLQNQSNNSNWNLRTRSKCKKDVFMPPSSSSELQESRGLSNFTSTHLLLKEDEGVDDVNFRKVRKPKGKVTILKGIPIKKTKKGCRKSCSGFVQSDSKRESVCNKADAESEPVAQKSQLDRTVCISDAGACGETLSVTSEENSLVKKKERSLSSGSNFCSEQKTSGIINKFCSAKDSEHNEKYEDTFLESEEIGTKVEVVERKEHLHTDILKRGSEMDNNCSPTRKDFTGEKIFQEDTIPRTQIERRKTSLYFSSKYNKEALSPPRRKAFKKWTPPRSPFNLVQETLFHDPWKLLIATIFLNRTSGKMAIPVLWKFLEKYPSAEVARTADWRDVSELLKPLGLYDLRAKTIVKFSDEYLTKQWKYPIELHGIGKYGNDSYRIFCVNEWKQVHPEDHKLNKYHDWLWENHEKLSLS
# Sequence of Endonuclease 8-like 1 (Homo sapiens) (Q96FI4 whole entry): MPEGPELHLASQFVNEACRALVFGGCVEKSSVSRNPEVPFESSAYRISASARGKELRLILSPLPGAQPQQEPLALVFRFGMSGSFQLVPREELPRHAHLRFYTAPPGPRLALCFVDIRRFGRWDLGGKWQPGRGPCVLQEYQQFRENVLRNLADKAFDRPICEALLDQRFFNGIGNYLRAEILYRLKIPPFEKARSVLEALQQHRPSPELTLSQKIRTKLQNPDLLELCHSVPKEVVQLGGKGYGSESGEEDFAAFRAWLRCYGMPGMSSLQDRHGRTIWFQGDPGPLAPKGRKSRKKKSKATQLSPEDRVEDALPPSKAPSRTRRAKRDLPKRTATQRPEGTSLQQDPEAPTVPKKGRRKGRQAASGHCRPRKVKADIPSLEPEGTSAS
# Sequence of N-glycosylase/DNA lyase (Homo sapiens) (O15527 whole entry): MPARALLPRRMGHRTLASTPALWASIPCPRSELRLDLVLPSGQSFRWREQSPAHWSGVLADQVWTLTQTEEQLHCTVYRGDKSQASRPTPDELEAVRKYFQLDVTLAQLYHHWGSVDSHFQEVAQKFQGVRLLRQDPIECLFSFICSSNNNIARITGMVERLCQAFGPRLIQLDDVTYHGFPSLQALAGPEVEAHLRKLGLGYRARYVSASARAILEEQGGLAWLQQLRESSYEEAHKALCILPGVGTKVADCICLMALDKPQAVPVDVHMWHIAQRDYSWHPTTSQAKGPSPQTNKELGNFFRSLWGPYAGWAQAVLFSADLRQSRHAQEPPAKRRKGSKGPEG
SMILES,inhibition [1] [%],inhibition [2] [%],inhibition [3],inhibition [4],inhibition [5] [%],inhibition [6],inhibition [7],inhibition [8] [%],inhibition [9],inhibition [10]
CCCCN(CC)c1nc(C)nc2c1c(C)cn2-c1c(C)cc(C)cc1C,-9.26,6,-1.24%,9%,19.5,2.6%,-0.0333%,13.7,-4.91%,
CC(C)(C)NCC(O)COc1cccc2[nH]c(=O)[nH]c12 (configuration not stated),12.3,4.34,3.06%,10.5%,-6.87,-2.11%,12.3%,5.99,-8.82%,
CC(C)Cc1ccc([C@@H](C)C(=O)NS(C)(=O)=O)cc1,,-0.553,1.28%,-1.98%,,-2.17%,0.354%,3.68,-7.7%,19%
OC(CN1CCC(Cc2ccc(F)cc2)CC1)c1ccc(Cl)cc1 (configuration not stated),-0.39,4.63,0.602%,-7.99%,8.82,-4.77%,-3.86%,-8.99,-7.04%,
CCC(=N\O)/C(C)=C/c1ccc(F)cc1,,12.6,0.164% and -0.139%,-6.1% and 1.43%,,8.29% and 3.66%,15.6% and 4.45%,,-0.0369% and -2.61%,-8.19% and -8.38%
Cc1onc(-c2ccccc2Cl)c1C(=O)N(C)c1ccc(Cl)cc1,,-3.37,-2.13%,7%,,-3.42%,3.65%,12.4,-8.91%,15.8%
CC(C)NCC(O)COc1cccc2[nH]ccc12 (configuration not stated),,6.08,2.76%,4.01%,,-5.87%,,3.97,-6.49%,-5.48%
CCCn1c(=O)c2[nH]c(-c3ccc(OCC(=O)Nc4ccc(C#N)cc4)cc3)nc2n(CCC)c1=O,,-6.3,,,,-7.63%,,1.64,-6.42%,-3.95%
CCOC(=O)c1cnn(-c2ccc(NC(=O)C(Cl)=C(Cl)Cl)cc2)c1C(F)(F)F,1.57,17.3,-3.99%,2.71%,8,-2.43%,15%,5.37,2.51%,
Cn1c(=O)n(CCCO)c(=O)c2c1nc(Oc1cccc(OC(F)(F)F)c1)n2Cc1ccc(Cl)cc1,26.6,13.8,-2.66%,-7.23%,8.82,-1.67%,10.3%,19.9,-4.54%,
Cc1c(C(=O)NN2CCCCC2)nn(-c2ccc(Cl)cc2Cl)c1-c1ccc(Cl)cc1,16.2,15.3,-1.09%,0.764%,-0.275,9%,11.7%,19.2,1.35%,
CCc1nc2c(C)cc(C)nc2[nH]1,,5.35,2.46%,6.75%,,,,-2.03,,-7.66%
N[C@H](C(=O)O)c1ccc(C(=O)O)c(C(=O)O)c1,,-6.3,-4.06%,5.76%,,-7.96%,-4.49%,4.6,,10.4%
CN1CCN2c3ncccc3Cc3ccccc3C2C1 (configuration not stated),,-7.53,3.95%,10%,,-6.38%,,-8.16,,-2.92%
